Experimental data published in EPA's ToxValDB 9.5.

Experiments:
Rattus norvegicus [1] = test system: Rattus norvegicus
Mus musculus [2] = conditions: for LOAEL / NOAEL: inhalation
Rattus norvegicus [3] = conditions: oral; for NOAEL: M/F
Rattus norvegicus [4] = conditions: subchronic, oral
Primate = conditions: inhalation
Rattus norvegicus [5] = conditions: repeat dose other; oral
Anas platyrhynchos = conditions: oral
Mus musculus [6] = conditions: oral, M/F; for NOEL: duration: 2 years, Albino, increased liver weight
Mus musculus [7] = conditions: subchronic; duration: 13 weeks; oral; diet; Testis: Damage
Rattus norvegicus [8] = conditions: subchronic, oral, Fischer 344
Mus musculus [9] = conditions: repeat dose other; oral
Mus musculus [10] = conditions: oral, drinking water
Mus musculus [11] = conditions: oral, drinking water, B6C3F1, immunological
Rattus norvegicus [12] = conditions: subchronic; duration: 90 days; oral; M/F; reduced body weight and neurotoxicity
Neovison sp. = conditions: repeat dose other; oral; Mink
[13] = reproduction developmental, duration: 6 days, Macaca Fascicularis
[14] = developmental, duration: 11 days, inhalation, Sprague-Dawley
[15] = short-term, duration: 4 weeks, inhalation, Sprague-Dawley
[16] = subchronic, duration: 90 days, oral, gavage, Sprague-Dawley
[17] = reproduction developmental, duration: 20 days, F, CD1
[18] = chronic, duration: 78 weeks, diet, CD1, Increased incidences of fatty change & hypertrophy in hepatocytes

O=C(O)CCCCC(=O)O [Hexanedioic acid]
LC50 (Rattus norvegicus [1]; acute, Inhalation, Sprague-Dawley): > 7.7 µg/mL | LD50 (Rattus norvegicus [1]; acute, oral, Sprague-Dawley): 5050 mg/kg | NOAEL (Rattus norvegicus [1]; developmental, duration: 10 days, oral, gavage, Wistar): > 288 mg/kg-day | LD50 (Oryctolagus sp.; acute, dermal, occlusive, New Zealand): > 7940 mg/kg | NOAEL (Oryctolagus sp.; developmental, duration: 13 days, oral, gavage, Dutch-belted): > 250 mg/kg-day | LD50 (Mus musculus [2]; acute, oral): 1900 mg/kg | NOAEL (Rattus norvegicus [3]; chronic, duration: 2 years, diet, albino, Whole Body Effects): 470 mg/kg-day

CO [Methanol]
NOEL (Rattus norvegicus [4]; duration: 90 days, gavage, Blood: Increased alkaline phosphatase + Blood: Increased SGPT + Brain: Decreased weight): 500 mg/kg-day | NOAEL (Primate; developmental, duration: 120 days, Macaca Fascicularis): > 2360 mg/m3 | LOAEL (Primate; [13]): 6550 mg/m3 | NOAEL (Primate; [13]): 3930 mg/m3 | NOAEL (Primate; reproduction developmental, duration: 120 days, F, Macaca Fascicularis): > 2360 mg/m3 | NOAEL (Primate; reproduction developmental, duration: 365 days, generation: F0): > 2360 mg/m3 | LOAEL (Rattus norvegicus [1]; [14]): ≤ 6550 mg/m3 | NOAEL (Rattus norvegicus [1]; [14]): ≥ 1310 mg/m3 | LOAEL (Rattus norvegicus [1]; developmental, duration: 19 days, inhalation, Sprague-Dawley): ≤ 26200 mg/m3 | NOAEL (Rattus norvegicus [1]; reproduction developmental, duration: 11 days, inhalation, F, Sprague-Dawley): > 1310 mg/m3 | LOAEL (Rattus norvegicus [1]; reproduction developmental, duration: 19 days, inhalation, F, Sprague-Dawley): ≤ 26200 mg/m3 | NOAEL (Rattus norvegicus [1]; reproduction developmental, duration: 365 days, inhalation, Sprague-Dawley, generation: F0): 131 mg/m3 | NOAEL (Rattus norvegicus [1]; reproduction developmental, duration: 365 days, inhalation, Sprague-Dawley, generation: F1): 131 mg/m3 | NOAEL (Rattus norvegicus [1]; reproduction developmental, duration: 365 days, inhalation, Sprague-Dawley, generation: F2): 131 mg/m3 | LOAEL (Rattus norvegicus [1]; [15]): 6550 mg/m3 | NOAEL (Rattus norvegicus [1]; [15]): ≥ 3930 mg/m3 | LOAEL (Rattus norvegicus [1]; [16]): 2500 mg/kg-day | NOAEL (Rattus norvegicus [1]; [16]): > 500 mg/kg-day | LOAEL (Mus musculus [2]; developmental, duration: 10 days, CD1): 2620 mg/m3 | LOAEL (Mus musculus [2]; developmental, duration: 20 days, CD1): 13100 mg/m3 | NOAEL (Mus musculus [2]; reproduction developmental, duration: 18 months, B6C3F1): > 1310 mg/m3 | NOAEL (Mus musculus [2]; reproduction developmental, duration: 10 days, F, CD1): > 19700 mg/m3 | LOAEL (Mus musculus [2]; [17]): ≤ 19700 mg/m3 | NOAEL (Mus musculus [2]; [17]): ≥ 13100 mg/m3 | LOAEL (Rattus norvegicus [5]): 250 mg/kg-day | NOAEL (Rattus norvegicus [5]): 50 mg/kg-day

[CH3][Hg]/[N]=C(\N)NC#N [Methyl mercury dicyandiamide]
LOAEL (Anas platyrhynchos): 0.064 mg/kg-day | NOAEL (Anas platyrhynchos): 0.0064 mg/kg-day

C[C@](C#N)(COc1cc(C#N)ccc1C(F)(F)F)NC(=O)c1ccc(SC(F)(F)F)cc1 [Monepantel]
LOAEL (Mus musculus [6]; [18]): 5.5 mg/kg-day | NOAEL (Mus musculus [6]; [18]): 1.8 mg/kg-day

CNc1ccccc1 [N-Methylaniline]
NOAEL (Rattus norvegicus [3]; short-term, duration: 28 days, gavage, CD, Hematologic, Immune): 5 mg/kg-day

c1ccc(Nc2cccc3ccccc23)cc1 [N-Phenyl-1-naphthylamine]
NOAEL (Canidae; chronic, duration: 36 months, oral, diet, Dog Other): 290 mg/kg-day

O=C1CN(/N=C/c2ccc([N+](=O)[O-])o2)C(=O)N1 [Nitrofurantoin]
NOAEL (Mus musculus [7]): 59.1 mg/kg-day | NOEL (Rattus norvegicus [8]; duration: 13 weeks, diet, M/F, Deaths + Body Weight Changes: decrease + Urinalysis: Bright yellow + Absolute Organ Weight: Liver increase + Relative Organ Weight: Liver …): < 57.6 mg/kg-day

N#CCC#N [Propanedinitrile]
NOAEL (Rattus norvegicus [3]; subchronic, duration: 90 days, gavage, Crl:CD(SD) BR, hepatic): 0.4 mg/kg-day

[Na+].[O]=[V](=[O])[O-] [Sodium metavanadate]
NOAEL (Rattus norvegicus [4]; duration: 3 months, drinking water, Kidney: Impaired function): 1.52 mg/kg-day | LOAEL (Rattus norvegicus [5]): 2.1 mg/kg-day | NOAEL (Rattus norvegicus [5]): 0.21 mg/kg-day

O=[Se]([O-])[O-].[Na+].[Na+] [Sodium selenite]
LOAEL (Anas platyrhynchos): 1 mg/kg-day | NOAEL (Anas platyrhynchos): 0.5 mg/kg-day | NOEL (Rattus norvegicus [8]; drinking water, F, Deaths + Body Weight Changes: decrease + Water Consumption: decrease + Hematology: Hct increase, Hgb increase, RBC increase + Blood …): 0.17 mg/kg-day | NOEL (Rattus norvegicus [8]; drinking water, M/F, Deaths + Body Weight Changes: decrease + Water Consumption: decrease + Hematology: Hct increase, Hgb increase, RBC increase + Blood …): 0.304 mg/kg-day

[Cl-].[Cl-].[Sr+2] [Strontium chloride]
NOAEL (Rattus norvegicus [5]): 263 mg/kg-day

[Mo].[O-2].[O-2].[O-2].[O-2] [Tetraoxomolybdate(2-)]
LOAEL (Mus musculus [9]): 2.6 mg/kg-day | NOAEL (Mus musculus [9]): 0.26 mg/kg-day

ClC=C(Cl)Cl [Trichloroethylene]
LOAEL (Mus musculus [10]; chronic, duration: 30 weeks, F, Decreased thymus weight in female B6C3F1 mice): 0.35 mg/kg-day | LOAEL (Mus musculus [10]; developmental, M/F, reduced plaque-forming cell (pfc) response, increased delayed-type hypersensitivity in b6c3f1 mice): 0.37 mg/kg-day | LOAEL (Mus musculus [11]; chronic, duration: 1 years, M/F): 0.37 mg/kg-day | LOAEL (Mus musculus [11]; chronic, duration: 30 weeks, F): 0.35 mg/kg-day | LOAEL (Mus musculus [11]; developmental, duration: 364 days, M/F): 0.37 mg/kg-day | LOAEL (Mus musculus [9]): 7 mg/kg-day | NOAEL (Mus musculus [9]): 0.7 mg/kg-day | NOEL (Rattus norvegicus [8]; duration: 13 weeks, gavage, M/F, Histopathology: Lung-Pulmonary vasculitis Kidney-Cytomegaly/Karyomegaly, Renal tubular epithelial cell in the inner cortex): 1000 mg/kg-day

CSc1nc2cc(Oc3cccc(Cl)c3Cl)c(Cl)cc2[nH]1 [Triclabendazole]
NOEL (Mus musculus [6]; Chronic / dietary, feed): 0.27 mg/kg-day | NOEL (Mus musculus [6]; chronic, diet): 0.27 mg/kg-day

FC(F)F [Trifluoromethane]
LOAEL (Canidae; repeat dose other, inhalation, Beagle): > 14300 mg/m3

CCCCCC [n-Hexane]
LOAEL (Rattus norvegicus [3]; subchronic, duration: 8 weeks, gavage, M, Wistar, Nervous): 785 mg/kg-day

Cc1ccccc1O [o-Cresol]
LOAEL (Rattus norvegicus [12]): 150 mg/kg-day | NOAEL (Rattus norvegicus [12]): 50 mg/kg-day | NOAEL (Neovison sp.): 219 mg/kg-day
